We go through 1 compound from patent US10052311B2, “PPAR compounds for use in the treatment of fibrotic diseases” (INVENTIVA, priority 2014, dated 2018).

The test system of assay [1] is primary human dermal fibroblasts. Briefly: TGFβ-induced fibroblasts to myofibroblasts transition (FMT), α-SMA immunocytochemistry. The following applies: Fibroblast, α-SMA-positive cells, 48 h, NC: not converged. Type of assay: cell-based. On the procedure:
(§1) The ability of compound A to inhibit TGFβ-induced lung and dermal fibroblasts to myofibroblasts transition (FMT) was determined by performing immunocytochemistry assays for the myofibroblast marker, α-smooth muscle actin (α-SMA). These assays were carried out using primary human lung or skin fibroblasts (Promocell). The cells were plated in 96-well plates in full growth medium for 24 h, followed by 24 h starvation in serum-free medium. The medium was then replaced by fresh medium containing TGFβ and compound A to be tested (at concentrations ranging from 10^−4 M to 4.5 10^−8 M) for another 48 h. The culture medium was then removed, the cells were fixed with formaldehyde and stained with a primary mouse α-SMA antibody (Sigma) and secondary fluorescence-labelled goat-anti-mouse antibody (Invitrogen). α-SMA expression was quantified using Meta Xpress software. […] Results were expressed as % of α-SMA-positive cells out of the total cell number. The data was normalised to the TGFβ treatment alone, which was taken as 100%. The results present the mean of biological triplicates. Dose-effect curves and IC50 values were calculated using the GraphPad Prism software.

For assay [2], the system named is primary human lung fibroblasts. Described as above. It counts as cell-based. The following applies: Fibroblast, α-SMA-positive cells, 48 h, NC: not converged. On the procedure:
as §1

Assay [3] addresses mouse PPARγ (Mus musculus, UniProt P37238). Briefly: cell-based.
Assay [4] has as its system bleomycin-exposed mice. As to the kind of experiment: Bleomycin-induced skin fibrosis in mice. It counts as in vivo, mouse. As to conditions: vs vehicle. On the procedure: The experiments were carried out on 6-week-old male C56BL/6 mice (Janvier, Le Genest-Saint-Isle, France).
0.9% NaCl was used as control (100 μL subcutaneous injections).
On day 21, mice were sacrificed by cervical dislocation, and skin samples were taken and processed for analysis.
Lesional skin areas were excised, fixed in 4% formalin and embedded in paraffin. Five μm thick sections were stained with haematoxylin and eosin. The dermal thickness was analyzed at 100-fold magnification by measuring the distance between the epidermal-dermal junction and the dermal-subcutaneous fat junction at four sites from lesional skin of each mouse. Two independent examiners performed the evaluation before a consensus in case of more of 10% of variability of the measures.
The collagen content in lesional skin samples was explored by hydroxyproline assay. After digestion of punch biopsies (ø3 mm) in 6M HCl for three hours at 120° C., the pH of the samples was adjusted to 7 with 6M NaOH. Afterwards, samples were mixed with 0.06 M chloramine T and incubated for 20 min at room temperature. […] The absorbance was determined at 557 nm with a Spectra MAX 190 microplate spectrophotometer (Molecular Devices, Sunnyvale, Calif., USA).
Total soluble collagen in cell culture supernatants was quantified using a Sircol collagen assay (Biocolor). Briefly, cell culture supernatant was mixed with sirius red dye for 30 minutes at room temperature. After centrifugation, the pellet was dissolved in alkali reagent. Measurement was performed using a SpectraMax 190 microplate spectrophotometer (Molecular Devices) at a wavelength of 540 nm.
Data were expressed as mean±standard error of the mean. The Student t-test was used for statistical analyses. A p value of less than 0.05 was considered as a statistically significant result.

pEC50, pIC50: −log10 of the molar value.

Chain of mouse PPARγ (P37238 238-505 limits assumed): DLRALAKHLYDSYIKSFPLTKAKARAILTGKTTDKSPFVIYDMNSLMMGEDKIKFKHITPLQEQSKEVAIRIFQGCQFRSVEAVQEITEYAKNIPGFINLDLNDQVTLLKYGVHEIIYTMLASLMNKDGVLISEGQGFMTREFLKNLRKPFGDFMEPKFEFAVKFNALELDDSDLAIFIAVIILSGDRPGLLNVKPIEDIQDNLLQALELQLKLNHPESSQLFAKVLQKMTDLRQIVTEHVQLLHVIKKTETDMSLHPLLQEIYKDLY

In the case of `O=C(O)CCCc1cc2cc(Cl)ccc2n1S(=O)(=O)c1ccc2ncsc2c1` [compound A, 5-Chloro-1-[(6-benzothiazolyl)sulfonyl]-1H-indole-2-butanoic acid], in assay [1], the pIC50 (commonly −log10 of the IC50, conventionally taken in molar units) was about 4.95. Further, the pIC50 in assay [2] was 4.97. Besides, the pEC50 (usually the negative decadic logarithm of the EC50, by convention in mol/L) in assay [3] is 6.77. In addition, in assay [4] (30 mg/kg po 21 days), the “collagen content (skin)” value is “significantly reduced the collagen content”, the dermal thickness entry is “significantly reduced dermal thickness” and the “hydroxyproline content in lesioned skin” value is given as “significantly lower”. Besides, in assay [4] (100 mg/kg po 21 days), the “collagen content (skin)” value is reported as “significantly reduced the collagen content”, the dermal thickness result is recorded as “more significantly reduced dermal thickness” and the “hydroxyproline content in lesioned skin” value is recorded as “significantly lower”.
